Publication PMC9486168, “Protein-protein interaction-based high throughput screening for adenylyl cyclase 1 inhibitors: Design, implementation, and discovery of a novel chemotype” (Frontiers in Pharmacology, 2022)
Where a name gives a salt, the structure may show the parent alone.

What was measured:
AC8 = biological target: T1, AC8 (Homo sapiens, UniProt P40145); assay: cAMP accumulation assay, AC8-HEK Δ3/6 KO cells; assay type: cell-based; details: for IC50: CDI analog SAR set, 3 μM A23187, read-out: IC50 (μM) ± SEM AC8
T1 construct: expressed in transfected cells
T1 sequence (P40145 whole entry, species assumed): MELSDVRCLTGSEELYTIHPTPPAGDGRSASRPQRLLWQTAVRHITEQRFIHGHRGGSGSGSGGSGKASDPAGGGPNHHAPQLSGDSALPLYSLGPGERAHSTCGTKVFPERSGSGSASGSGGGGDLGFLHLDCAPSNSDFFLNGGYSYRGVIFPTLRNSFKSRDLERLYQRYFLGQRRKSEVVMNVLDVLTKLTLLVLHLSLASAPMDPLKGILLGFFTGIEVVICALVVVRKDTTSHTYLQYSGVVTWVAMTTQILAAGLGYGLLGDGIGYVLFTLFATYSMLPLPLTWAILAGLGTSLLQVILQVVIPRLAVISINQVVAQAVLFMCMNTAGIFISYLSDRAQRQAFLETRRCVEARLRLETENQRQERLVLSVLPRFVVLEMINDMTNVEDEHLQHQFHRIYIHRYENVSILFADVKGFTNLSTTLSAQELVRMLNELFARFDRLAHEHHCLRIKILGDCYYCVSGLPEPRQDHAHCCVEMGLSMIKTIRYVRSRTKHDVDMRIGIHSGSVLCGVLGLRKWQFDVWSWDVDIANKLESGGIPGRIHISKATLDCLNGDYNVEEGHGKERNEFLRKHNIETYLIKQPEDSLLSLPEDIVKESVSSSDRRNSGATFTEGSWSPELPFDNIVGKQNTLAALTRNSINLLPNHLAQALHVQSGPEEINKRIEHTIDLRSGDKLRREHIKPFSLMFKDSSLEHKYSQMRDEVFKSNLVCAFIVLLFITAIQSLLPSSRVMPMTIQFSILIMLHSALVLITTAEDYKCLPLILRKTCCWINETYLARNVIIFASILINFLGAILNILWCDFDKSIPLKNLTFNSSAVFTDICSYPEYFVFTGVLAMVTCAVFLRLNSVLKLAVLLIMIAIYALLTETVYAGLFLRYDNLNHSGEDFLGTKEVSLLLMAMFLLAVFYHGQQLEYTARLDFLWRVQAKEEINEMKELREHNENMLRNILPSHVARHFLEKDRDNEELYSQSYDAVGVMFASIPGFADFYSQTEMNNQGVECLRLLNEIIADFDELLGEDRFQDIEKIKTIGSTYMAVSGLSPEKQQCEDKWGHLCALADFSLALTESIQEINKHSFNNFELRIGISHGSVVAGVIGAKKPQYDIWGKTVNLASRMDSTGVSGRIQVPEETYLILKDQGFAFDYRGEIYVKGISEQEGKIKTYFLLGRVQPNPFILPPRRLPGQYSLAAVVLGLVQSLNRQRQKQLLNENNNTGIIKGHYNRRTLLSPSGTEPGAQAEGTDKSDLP
Procedure: (§1) Cryopreserved HEK293 cells with AC3 and AC6 knocked out, and stably expressing AC1, AC2, AC5, or AC8 (AC1-HEK Δ3/6 KO, AC2-HEK Δ3/6 KO, AC5-HEK Δ3/6 KO, or AC8-HEK Δ3/6 KO cells, respectively; [Soto-Velasquez et al., 2018]) were plated at 5,000 cells/well. Cells were then incubated for 1 h at 37°C and 5% CO2. Cells were then treated with varying concentrations of inhibitors for 30 min, followed by treatment with calcium ionophore A23187 (3 μM) in 500 μM 3-isobutyl-1-methylxanthine (IBMX), a phosphodiesterase inhibitor, for 1 h at RT (Sigma Aldrich, St. Louis, MO). Finally, Cisbio HTRF detection reagents were added and incubated for 1–24 h at RT. Plates were read according to manufacturer’s protocol on an HTRF-compatible plate reader at 620 and 665 nm cAMP concentrations were interpolated from a cAMP standard curve. […] For cytotoxicity assays, compounds were tested at 30 μM and this protocol was used with the exception of detection reagents; CellTiter-Glo 2.0 reagent was used according to manufacturer’s protocol and luminescence was read on the Synergy Neo2 plate reader. Data are normalized to cells treated with vehicle (100%) or 2% tween (0%) and are represented as the percent of vehicle, from the average of three independent experiments (N = 3).

AC1 = biological target: T2, AC1 (Homo sapiens, UniProt Q08828); assay: cAMP accumulation assay, AC1-HEK Δ3/6 KO cells; assay type: cell-based; details: for IC50: CDI analog SAR set, 3 μM A23187, read-out: IC50 (μM) ± SEM AC1
T2 construct: expressed in transfected cells
T2 sequence (Q08828 whole entry): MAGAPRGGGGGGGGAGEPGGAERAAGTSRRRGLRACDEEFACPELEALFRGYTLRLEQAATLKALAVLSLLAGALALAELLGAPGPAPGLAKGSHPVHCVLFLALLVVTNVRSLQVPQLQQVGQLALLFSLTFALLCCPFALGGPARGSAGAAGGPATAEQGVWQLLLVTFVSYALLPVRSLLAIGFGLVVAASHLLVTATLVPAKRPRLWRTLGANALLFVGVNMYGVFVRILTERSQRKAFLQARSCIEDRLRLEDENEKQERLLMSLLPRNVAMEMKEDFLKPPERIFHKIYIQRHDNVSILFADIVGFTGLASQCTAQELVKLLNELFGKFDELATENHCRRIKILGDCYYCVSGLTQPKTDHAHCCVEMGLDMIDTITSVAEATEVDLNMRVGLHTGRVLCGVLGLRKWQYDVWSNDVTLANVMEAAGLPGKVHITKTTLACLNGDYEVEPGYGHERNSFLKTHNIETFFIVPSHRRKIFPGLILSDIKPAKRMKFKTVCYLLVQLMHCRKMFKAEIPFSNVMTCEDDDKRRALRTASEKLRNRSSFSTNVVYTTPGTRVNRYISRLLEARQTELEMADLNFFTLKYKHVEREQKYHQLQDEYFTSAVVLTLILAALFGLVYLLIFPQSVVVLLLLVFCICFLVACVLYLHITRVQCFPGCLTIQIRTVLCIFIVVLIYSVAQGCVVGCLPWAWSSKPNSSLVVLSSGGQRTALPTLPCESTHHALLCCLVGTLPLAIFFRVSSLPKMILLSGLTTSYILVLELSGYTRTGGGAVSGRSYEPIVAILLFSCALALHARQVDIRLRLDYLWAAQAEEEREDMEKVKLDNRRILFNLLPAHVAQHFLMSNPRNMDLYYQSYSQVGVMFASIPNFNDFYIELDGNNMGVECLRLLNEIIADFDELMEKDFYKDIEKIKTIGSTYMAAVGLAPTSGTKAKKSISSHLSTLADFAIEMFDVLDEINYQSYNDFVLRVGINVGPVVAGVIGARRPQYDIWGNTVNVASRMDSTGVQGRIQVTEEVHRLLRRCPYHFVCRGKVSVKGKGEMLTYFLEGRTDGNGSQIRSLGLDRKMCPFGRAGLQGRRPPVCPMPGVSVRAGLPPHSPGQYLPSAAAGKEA
Procedure: as §1, with “Cells” for “Cryopreserved HEK293 cells with AC3 and AC6 knocked out, and stably expressing AC1, AC2, AC5, or AC8 (AC1-HEK Δ3/6 KO, AC2-HEK Δ3/6 KO, AC5-HEK Δ3/6 KO, or AC8-HEK Δ3/6 KO cells, respectively; [Soto-Velasquez et al., 2018]) were plated at 5,000 cells/well. Cells”

[1] = Cytotoxicity assay (CellTiter-Glo 2.0) in AC1-HEK Δ3/6 KO cells; assay type: cell-based; details: human, percent of vehicle, read-out: % Viable Cells at AC1 30 μM
Procedure: as §1

AC1-C1b/CaM = biological target: T3, AC1-C1b/CaM (Homo sapiens, UniProt P0DP23); assay: AC1-C1b/CaM fluorescence polarization (FP) assay; assay type: binding; details: repurchased powder
T3 construct: made in house; host or cells: E. coli BL21-CodonPlus (DE3)-RIPL

Row | Compound | IC50 (AC8) | IC50 (AC1) | fold more potent at AC8 than AC1 (AC8; cAMP accumulation IC50s) | fold reduction in AC8 potency compared to 15 (AC8; matched molecular pair 15) | fold reduction in AC1 potency compared to 15 (AC1; matched molecular pair 15) | viability at 30 min, 30 μM [1] | inhibition of AC1/CaM in the FP assay after fresh powder stocks were ordered (AC1-C1b/CaM)
1 | CCc1cc(C(c2cccs2)N2CCCCC2)c(NC(=O)c2ccco2)s1 (stereo not drawn) [Compound 22] | 3.23 ± 0.57 µM | 2.48 ± 0.39 µM | – | – | – | 97% | –
2 | Cc1cc(C(c2cccs2)N2CCC(C)CC2)c(NC(=O)c2ccco2)s1 (stereo not drawn) [Compound 23] | 4.21 ± 1.01 µM | 3.08 ± 0.25 µM | – | – | – | 100% | –
3 | CCc1cc(C(c2cccs2)N2CCN(CC)CC2)c(NC(=O)c2ccco2)s1 (stereo not drawn) [Compound 26] | 2.92 ± 1.36 µM | 4.39 ± 0.44 µM | – | – | – | 61% | –
4 | CN1CCN(C(c2cccs2)c2c(NC(=O)c3ccco3)sc3c2CCCC3)CC1 (stereo not drawn) [Compound 27] | 25.6 ± 6.77 µM | 34.8 ± 13 µM | – | – | – | 48% | –
5 | CN1CCC[C@H]1c1cccnc1.O=C(O)C(O)C(O)C(=O)O.O=C(O)C(O)C(O)C(=O)O [nicotine ditartrate] | – | – | – | – | – | – | did not exhibit significant inhibition
6 | CCN(C)C(=O)Oc1cccc([C@H](C)N(C)C)c1 [rivastigmine tartrate] | – | – | – | – | – | – | did not exhibit significant inhibition
7 | ethyl quinine | – | – | – | – | – | – | did not exhibit significant inhibition

Continued, in another order:

Row | IC50 (AC8) | IC50 (AC1) | fold more potent at AC8 than AC1 (AC8; cAMP accumulation IC50s) | fold reduction in AC8 potency compared to 15 (AC8; matched molecular pair 15) | fold reduction in AC1 potency compared to 15 (AC1; matched molecular pair 15) | Compound | viability at 30 min, 30 μM [1] | inhibition of AC1/CaM in the FP assay after fresh powder stocks were ordered (AC1-C1b/CaM)
8 | 11.6 ± 1.82 µM | 20 ± 5.23 µM | 2 fold | – | – | CCN1CCN(C(c2cccs2)c2c(NC(=O)c3ccco3)sc3c2CCCC3)CC1 (stereo not drawn) [Compound 28] | 88% | –
9 | 14.4 ± 4.1 µM | 10.3 ± 1.45 µM | – | ~3 fold | ~2 fold | CCc1cc(C(c2ccccc2)N2CCN(C)CC2)c(NC(=O)c2ccco2)s1 (stereo not drawn) [Compound 29] | 65% | –
10 | 4.99 ± 1.1 µM | 10.6 ± 2.72 µM | – | – | – | Cc1cc(C(c2cccs2)N2CCOCC2)c(NC(=O)c2ccco2)s1 (stereo not drawn) [Compound 30] | 100% | –
11 | 1.49 ± 0.38 µM | 5.25 ± 1.07 µM | – | – | – | CCc1cc(C(c2cccs2)N2CCOCC2)c(NC(=O)c2ccco2)s1 (stereo not drawn) [Compound 31] | 37% | –
12 | 2.7 ± 1.92 µM | 3.58 ± 2.26 µM | – | – | – | CCc1cc(C(Nc2ccccn2)c2cccs2)c(NC(=O)c2ccco2)s1 (stereo not drawn) [Compound 33] | 88% | –
